# Patent US20100298286A1, “Organic Compounds” (NOVARTIS AG, priority 2007, published 2010)
# Key:
# Assay type in all cases: biochemical
# PI3Kgamma = biological target: T1, PI3Kgamma (Homo sapiens, UniProt P48736, Q459R); assay: PI3K KinaseGlo assay, PI3Kgamma; conditions: 1 μM ATP, 150 nM enzyme, 90 mins
# T1 construct: Constructs lacking the N-terminal 144 aa; His6 (C); made in house; host or cells: Tn5 insect cells; construct from Roger Williams lab (MRC LMB)
# Procedure: PI3K KinaseGlo assay: […] of compound dilutions were dispensed onto black 384-well low volume Non Binding Styrene (NBS) plates (Costar Cat. No. NBS#3676). L-a-phosphatidylinositol (PI), provided as 10 mg/ml solution in methanol, was transferred into a glass tube and dried under nitrogen beam. It was then resuspended in 3% OctylGlucoside (OG) by vortexing and stored at 4° C. The KinaseGlo Luminescent Kinase Assay (Promega, Madison/WI, USA) is a homogeneous HTS method of measuring kinase activity by quantifying the amount of ATP remaining in solution following a kinase reaction.
# 5 μL of a mix of PI/OG with the PI3K subtype were added (Table 1). Kinase reactions were started by addition of 5 μl of ATP-mix containing in a final volume 10 μL 10 mM TRIS-HCl pH 7.5, 3 mM MgCl2, 50 mM NaCl, 0.05% CHAPS, 1 mM DTT and 1 μM ATP, and occurred at room temperature. Reactions were stopped with 10 μl of KinaseGlo and plates were read 10 mins later in a Synergy2 reader using an integration time of 0.1 seconds per well. […] The standard was used as a reference compound and included in all assay plates in the form of 16 dilution points in duplicate.
# The PI3Kα, PI3Kβ and PI3Kδ constructs are fusion of p85α iSH2 domain and the respective p110 isoforms. The p85α fragment and p110 isoform genes were generated by PCR from first strand cDNA generated by RT-PCR from commercial RNA from placenta, testis and brain as described below. […]
# The lysate was centrifuged at 45,000 g for 30 minutes, and the supernatant was loaded onto a pre-equilibrated IMAC column (3 mL resin/100 mL lysate). […] Pertinent fractions were analyzed by SDS-PAGE and pooled accordingly. […] Pertinent fractions were analyzed by SDS-PAGE and pooled accordingly. […]
# PI3Kalpha = biological target: T2, PI3Kalpha (Homo sapiens, UniProt P42336); assay: PI3K KinaseGlo assay, PI3Kalpha; conditions: 1 μM ATP, 10 nM enzyme, 30 mins
# T2 construct: His6 (C); made in house; host or cells: baculovirus / Tn5 insect cells
# PI3Kdelta = biological target: T3, PI3Kdelta (Homo sapiens, UniProt O00329); assay: PI3K KinaseGlo assay, PI3Kdelta; conditions: 1 μM ATP, 10 nM enzyme, 30 mins
# T3 construct: for the full-length p110δ subunit were generated and fused by overlapping PCR; His tag (C); made in house; host or cells: baculovirus / Tn5 insect cells
# PI3Kbeta = biological target: T4, PI3Kbeta (Homo sapiens, UniProt P42338); assay: PI3K KinaseGlo assay, PI3Kbeta; conditions: 1 μM ATP, 25 nM enzyme, 30 mins
# T4 construct: p85α iSH2 domain (fusion partner); His tag (C); made in house; host or cells: baculovirus / Tn5 insect cells
# T4 sequence (P42338 with tags, fused parts or gaps limits assumed): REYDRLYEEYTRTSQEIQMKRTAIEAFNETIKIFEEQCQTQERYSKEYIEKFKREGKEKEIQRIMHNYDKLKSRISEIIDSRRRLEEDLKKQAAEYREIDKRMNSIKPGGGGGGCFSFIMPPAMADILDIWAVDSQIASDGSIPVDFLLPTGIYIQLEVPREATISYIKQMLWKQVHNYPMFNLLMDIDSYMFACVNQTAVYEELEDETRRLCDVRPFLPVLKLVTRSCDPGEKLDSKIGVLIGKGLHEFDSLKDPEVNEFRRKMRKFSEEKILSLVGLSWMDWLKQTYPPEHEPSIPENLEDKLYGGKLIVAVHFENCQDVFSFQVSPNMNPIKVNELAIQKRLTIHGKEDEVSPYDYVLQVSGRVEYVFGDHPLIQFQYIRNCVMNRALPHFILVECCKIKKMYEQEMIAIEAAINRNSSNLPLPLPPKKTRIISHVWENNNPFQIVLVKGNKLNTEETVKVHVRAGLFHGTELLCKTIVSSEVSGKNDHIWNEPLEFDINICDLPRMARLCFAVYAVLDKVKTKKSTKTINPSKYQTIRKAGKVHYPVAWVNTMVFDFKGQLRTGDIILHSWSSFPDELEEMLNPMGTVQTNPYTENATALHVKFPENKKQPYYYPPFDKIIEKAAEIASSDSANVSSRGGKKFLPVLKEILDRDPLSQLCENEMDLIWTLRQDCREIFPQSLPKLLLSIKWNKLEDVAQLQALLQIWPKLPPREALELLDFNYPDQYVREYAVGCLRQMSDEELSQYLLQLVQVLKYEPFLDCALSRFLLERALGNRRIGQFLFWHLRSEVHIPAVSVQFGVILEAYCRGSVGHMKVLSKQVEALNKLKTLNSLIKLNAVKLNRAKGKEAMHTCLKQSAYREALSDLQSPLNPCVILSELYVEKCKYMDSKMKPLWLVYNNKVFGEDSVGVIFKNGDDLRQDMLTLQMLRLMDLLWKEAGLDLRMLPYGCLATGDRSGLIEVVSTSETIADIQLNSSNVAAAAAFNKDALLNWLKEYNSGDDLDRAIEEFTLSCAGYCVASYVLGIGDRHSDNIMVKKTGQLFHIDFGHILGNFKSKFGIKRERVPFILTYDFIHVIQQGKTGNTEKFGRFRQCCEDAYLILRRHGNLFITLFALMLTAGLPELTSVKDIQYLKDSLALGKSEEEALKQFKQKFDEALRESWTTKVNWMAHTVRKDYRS
# T2 sequence (P42336 with tags, fused parts or gaps): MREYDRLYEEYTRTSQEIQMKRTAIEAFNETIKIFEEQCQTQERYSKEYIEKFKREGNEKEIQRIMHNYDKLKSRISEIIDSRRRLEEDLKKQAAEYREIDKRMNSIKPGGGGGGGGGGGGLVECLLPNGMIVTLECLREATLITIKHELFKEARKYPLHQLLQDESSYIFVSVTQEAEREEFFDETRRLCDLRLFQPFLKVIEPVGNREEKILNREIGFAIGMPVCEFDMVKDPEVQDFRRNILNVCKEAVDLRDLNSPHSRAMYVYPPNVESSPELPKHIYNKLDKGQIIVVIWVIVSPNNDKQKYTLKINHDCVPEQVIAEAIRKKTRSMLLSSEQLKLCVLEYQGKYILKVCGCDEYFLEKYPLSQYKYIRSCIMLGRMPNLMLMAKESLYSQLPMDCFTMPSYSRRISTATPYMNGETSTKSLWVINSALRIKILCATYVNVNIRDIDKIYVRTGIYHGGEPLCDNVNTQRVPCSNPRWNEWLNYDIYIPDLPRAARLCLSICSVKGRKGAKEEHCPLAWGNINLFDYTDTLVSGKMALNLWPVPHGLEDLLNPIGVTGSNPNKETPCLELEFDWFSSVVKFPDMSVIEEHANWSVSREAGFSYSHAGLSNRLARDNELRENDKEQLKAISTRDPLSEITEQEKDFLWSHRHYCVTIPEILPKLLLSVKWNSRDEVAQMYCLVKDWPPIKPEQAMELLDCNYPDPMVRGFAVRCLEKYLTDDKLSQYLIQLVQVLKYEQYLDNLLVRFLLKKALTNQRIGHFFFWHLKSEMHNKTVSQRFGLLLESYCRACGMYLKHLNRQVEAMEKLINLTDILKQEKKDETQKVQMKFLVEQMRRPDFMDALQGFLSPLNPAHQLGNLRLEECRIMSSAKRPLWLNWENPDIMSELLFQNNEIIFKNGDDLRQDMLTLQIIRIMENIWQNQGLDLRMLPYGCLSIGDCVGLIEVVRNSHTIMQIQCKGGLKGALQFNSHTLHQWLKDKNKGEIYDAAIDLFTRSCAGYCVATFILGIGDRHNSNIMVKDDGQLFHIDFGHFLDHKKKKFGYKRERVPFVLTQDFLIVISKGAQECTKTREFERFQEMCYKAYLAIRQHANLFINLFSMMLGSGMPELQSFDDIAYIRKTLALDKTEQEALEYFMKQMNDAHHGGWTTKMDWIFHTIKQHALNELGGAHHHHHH
# T3 sequence (O00329 with tags, fused parts or gaps): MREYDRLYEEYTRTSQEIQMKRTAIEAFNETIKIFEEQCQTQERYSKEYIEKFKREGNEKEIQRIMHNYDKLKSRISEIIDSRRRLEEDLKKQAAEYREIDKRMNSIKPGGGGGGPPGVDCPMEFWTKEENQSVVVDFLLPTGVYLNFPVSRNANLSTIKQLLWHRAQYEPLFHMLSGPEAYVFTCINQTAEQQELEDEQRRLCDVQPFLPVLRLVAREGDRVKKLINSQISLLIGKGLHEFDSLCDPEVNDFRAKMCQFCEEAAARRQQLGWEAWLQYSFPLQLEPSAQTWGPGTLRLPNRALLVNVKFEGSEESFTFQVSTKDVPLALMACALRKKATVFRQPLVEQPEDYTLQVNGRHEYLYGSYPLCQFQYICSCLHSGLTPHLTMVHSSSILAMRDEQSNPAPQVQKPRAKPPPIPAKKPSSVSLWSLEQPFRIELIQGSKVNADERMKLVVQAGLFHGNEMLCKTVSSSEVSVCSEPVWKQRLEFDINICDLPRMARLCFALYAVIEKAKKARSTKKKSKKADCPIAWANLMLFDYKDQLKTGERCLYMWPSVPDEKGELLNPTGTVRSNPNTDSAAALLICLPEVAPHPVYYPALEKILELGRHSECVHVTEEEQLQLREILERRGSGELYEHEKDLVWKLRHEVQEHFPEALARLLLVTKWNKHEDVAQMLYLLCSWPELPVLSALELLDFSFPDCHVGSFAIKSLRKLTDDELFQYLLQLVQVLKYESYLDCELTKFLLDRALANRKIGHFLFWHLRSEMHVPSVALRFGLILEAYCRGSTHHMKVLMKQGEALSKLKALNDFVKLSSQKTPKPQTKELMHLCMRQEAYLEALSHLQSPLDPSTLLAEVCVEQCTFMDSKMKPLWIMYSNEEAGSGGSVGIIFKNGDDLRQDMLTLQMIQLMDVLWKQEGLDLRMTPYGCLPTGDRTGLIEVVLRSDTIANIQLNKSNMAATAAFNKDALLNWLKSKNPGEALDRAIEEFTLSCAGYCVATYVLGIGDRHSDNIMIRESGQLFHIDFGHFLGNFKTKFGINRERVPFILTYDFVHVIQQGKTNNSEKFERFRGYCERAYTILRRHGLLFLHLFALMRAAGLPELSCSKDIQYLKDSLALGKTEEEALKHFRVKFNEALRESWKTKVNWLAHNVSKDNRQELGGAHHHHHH
# T1 sequence (P48736 with tags, fused parts or gaps Q459R): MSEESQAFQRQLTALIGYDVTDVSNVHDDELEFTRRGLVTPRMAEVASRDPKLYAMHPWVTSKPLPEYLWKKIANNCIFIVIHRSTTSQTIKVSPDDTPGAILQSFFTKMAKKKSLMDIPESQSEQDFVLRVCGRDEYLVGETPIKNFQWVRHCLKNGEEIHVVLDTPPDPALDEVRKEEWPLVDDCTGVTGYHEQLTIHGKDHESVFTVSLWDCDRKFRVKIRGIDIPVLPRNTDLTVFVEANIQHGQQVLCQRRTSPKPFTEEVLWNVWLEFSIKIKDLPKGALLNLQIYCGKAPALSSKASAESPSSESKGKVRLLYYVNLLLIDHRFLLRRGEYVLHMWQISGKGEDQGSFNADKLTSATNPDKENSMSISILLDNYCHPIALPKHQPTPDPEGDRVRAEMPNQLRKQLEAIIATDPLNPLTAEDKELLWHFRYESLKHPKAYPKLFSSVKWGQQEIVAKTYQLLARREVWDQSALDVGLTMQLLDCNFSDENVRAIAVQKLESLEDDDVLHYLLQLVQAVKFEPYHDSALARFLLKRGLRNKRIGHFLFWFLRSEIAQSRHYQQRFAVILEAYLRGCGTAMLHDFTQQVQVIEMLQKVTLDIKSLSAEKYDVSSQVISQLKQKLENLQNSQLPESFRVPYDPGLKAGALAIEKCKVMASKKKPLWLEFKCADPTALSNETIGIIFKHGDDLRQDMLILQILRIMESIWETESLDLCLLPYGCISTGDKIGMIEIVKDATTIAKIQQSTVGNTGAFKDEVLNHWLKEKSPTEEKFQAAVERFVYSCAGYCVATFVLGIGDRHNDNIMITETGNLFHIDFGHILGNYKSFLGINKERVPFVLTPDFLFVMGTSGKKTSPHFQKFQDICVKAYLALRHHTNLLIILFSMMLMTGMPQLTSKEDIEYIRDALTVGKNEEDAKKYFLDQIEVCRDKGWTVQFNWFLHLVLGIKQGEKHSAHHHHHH
compound,measurement,setting,value
"Cc1nc(NC(=O)N2CCC2C(N)=O)sc1-c1csc(C(C)(C)C)n1 (stereo not drawn) [Example 13, Azetidine-1,2-dicarboxylic acid 2-amide 1-[(2-tert-butyl-4′-methyl-[4,5]bithiazolyl-2′-yl)-amide]]",IC50,PI3Kgamma,2510 nM
same,IC50,PI3Kalpha,54 nM
same,IC50,PI3Kdelta,622 nM
same,IC50,PI3Kbeta,6860 nM
"Cc1nc(NC(=O)N2CCC[C@H]2C(N)=O)sc1-c1csc(N2CC3CCC(CC3)C2)n1 [Example 23, (S)-Pyrrolidine-1,2-dicarboxylic acid 2-amide 1-{[2-(3-aza-bicyclo[3.2.2]non-3-yl)-4′-methyl-[4,5]bithiazolyl-2′-yl]-amide}]",IC50,PI3Kgamma,1640 nM
same,IC50,PI3Kalpha,331 nM
same,IC50,PI3Kdelta,2370 nM
same,IC50,PI3Kbeta,8470 nM
"Cc1nc(NC(=O)N2CCC[C@@]2(C)C(N)=O)sc1-c1csc(CC2CC2)n1 [Example 49, (S)-2-Methyl-pyrrolidine-1,2-dicarboxylic acid 2-amide 1-[(2-cyclopropylmethyl-4′-methyl-[4,5]bithiazolyl-2′-yl)-amide]]",IC50,PI3Kgamma,928 nM
same,IC50,PI3Kalpha,78 nM
same,IC50,PI3Kdelta,1260 nM
same,IC50,PI3Kbeta,885 nM
